The record followed here is PMC7827406, “Structure–Activity Relationship (SAR) Study of Spautin-1 to Entail the Discovery of Novel NEK4 Inhibitors” (International Journal of Molecular Sciences, 2021).

Holding throughout (experiment): biochemical
Design in all cases: Eurofins KinaseProfiler full panel at Km ATP, residual kinase activity (%) relative to DMSO

One test addresses MYLK2(h) (Homo sapiens, UniProt Q9H1R3). The method in brief:
(§1)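 Two 10 µM single-concentration screens were run: a competition-binding screen, in which DNA-tagged kinase bound to immobilized ligands was quantified by qPCR, and a radiometric activity panel at Km ATP. Each is expressed as residual kinase activity (%).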

The target of the next test is T1, MYO3B(h) (Homo sapiens, UniProt Q8WXR4).
T1 sequence (Q8WXR4 1-1341): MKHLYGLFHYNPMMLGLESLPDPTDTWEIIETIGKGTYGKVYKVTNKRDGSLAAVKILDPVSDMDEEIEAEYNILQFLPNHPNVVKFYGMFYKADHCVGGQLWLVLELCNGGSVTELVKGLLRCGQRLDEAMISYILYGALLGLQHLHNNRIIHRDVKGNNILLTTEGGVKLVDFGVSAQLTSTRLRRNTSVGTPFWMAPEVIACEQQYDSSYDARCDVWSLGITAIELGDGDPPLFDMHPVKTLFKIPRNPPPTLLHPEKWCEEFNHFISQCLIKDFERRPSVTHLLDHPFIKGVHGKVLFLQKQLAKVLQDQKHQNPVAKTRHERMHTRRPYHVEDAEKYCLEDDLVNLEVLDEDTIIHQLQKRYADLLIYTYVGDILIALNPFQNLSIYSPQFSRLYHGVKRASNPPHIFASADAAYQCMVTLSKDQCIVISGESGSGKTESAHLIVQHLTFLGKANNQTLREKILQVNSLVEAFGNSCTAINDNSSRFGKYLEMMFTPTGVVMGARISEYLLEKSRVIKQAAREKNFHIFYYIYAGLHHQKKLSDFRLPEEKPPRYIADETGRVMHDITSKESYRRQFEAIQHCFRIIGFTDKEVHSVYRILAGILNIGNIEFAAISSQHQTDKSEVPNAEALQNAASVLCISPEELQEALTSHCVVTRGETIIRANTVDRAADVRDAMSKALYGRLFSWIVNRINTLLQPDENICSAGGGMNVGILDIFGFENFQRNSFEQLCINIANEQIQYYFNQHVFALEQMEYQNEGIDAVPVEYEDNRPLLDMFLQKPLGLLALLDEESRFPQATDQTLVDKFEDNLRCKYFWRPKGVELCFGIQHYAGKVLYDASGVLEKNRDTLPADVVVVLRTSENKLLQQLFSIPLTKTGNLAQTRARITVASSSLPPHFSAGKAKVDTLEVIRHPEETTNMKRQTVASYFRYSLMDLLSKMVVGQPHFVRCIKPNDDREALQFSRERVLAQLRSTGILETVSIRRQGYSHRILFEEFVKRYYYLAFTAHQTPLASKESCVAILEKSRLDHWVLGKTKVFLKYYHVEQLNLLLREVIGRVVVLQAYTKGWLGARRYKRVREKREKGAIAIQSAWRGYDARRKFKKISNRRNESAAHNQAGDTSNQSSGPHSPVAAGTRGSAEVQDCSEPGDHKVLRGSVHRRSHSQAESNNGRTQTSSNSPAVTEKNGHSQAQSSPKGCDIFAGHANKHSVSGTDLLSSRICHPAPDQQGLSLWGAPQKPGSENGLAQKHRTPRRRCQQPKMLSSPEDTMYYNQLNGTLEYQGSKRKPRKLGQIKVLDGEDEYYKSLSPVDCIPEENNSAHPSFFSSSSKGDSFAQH
Summed up:
as §1

The next test addresses FGFR4(h) (Homo sapiens, UniProt P22455). The method in brief: as §1
The target of the next test is T2, EphB3(h) (Homo sapiens, UniProt P54753).
T2 sequence (P54753 1-998): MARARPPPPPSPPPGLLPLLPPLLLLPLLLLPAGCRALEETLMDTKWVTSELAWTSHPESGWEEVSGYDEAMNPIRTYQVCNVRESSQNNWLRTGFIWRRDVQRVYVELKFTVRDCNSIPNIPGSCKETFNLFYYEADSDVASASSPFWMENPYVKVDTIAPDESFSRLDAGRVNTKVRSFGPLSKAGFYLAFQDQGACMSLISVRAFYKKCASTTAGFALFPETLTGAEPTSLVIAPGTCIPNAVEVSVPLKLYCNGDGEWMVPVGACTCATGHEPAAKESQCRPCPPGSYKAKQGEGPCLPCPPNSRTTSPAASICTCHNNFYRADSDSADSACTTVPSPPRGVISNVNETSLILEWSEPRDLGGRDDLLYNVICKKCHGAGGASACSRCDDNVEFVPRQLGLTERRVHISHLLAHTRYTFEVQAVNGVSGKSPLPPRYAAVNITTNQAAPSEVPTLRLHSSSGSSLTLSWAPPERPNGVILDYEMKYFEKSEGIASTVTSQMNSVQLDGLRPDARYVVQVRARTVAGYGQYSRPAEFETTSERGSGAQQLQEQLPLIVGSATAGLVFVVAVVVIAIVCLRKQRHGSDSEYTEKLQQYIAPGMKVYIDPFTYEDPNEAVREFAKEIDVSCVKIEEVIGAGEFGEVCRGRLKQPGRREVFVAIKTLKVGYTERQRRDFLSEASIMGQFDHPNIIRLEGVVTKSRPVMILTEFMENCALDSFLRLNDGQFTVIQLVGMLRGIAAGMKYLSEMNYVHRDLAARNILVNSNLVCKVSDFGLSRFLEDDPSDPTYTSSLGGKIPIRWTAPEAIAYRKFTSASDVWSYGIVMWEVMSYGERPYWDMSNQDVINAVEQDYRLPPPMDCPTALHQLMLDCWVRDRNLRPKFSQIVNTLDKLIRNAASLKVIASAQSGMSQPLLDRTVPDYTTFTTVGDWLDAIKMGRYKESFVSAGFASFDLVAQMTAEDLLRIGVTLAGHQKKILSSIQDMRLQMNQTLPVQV
Summed up:
as §1

The mark [1] stands for this setting: read-out: Residual activity (%) 5at.
The mark [2] stands for this setting: read-out: Residual activity (%) 5ay.
Where [3] appears, read: read-out: Residual activity (%) 5as.
Setting [4] is: read-out: Residual activity (%) Spautin-1 5aa.

Where two headings read alike, the source gives them in different places.

MYLK2(h), sequence (Q9H1R3 whole entry): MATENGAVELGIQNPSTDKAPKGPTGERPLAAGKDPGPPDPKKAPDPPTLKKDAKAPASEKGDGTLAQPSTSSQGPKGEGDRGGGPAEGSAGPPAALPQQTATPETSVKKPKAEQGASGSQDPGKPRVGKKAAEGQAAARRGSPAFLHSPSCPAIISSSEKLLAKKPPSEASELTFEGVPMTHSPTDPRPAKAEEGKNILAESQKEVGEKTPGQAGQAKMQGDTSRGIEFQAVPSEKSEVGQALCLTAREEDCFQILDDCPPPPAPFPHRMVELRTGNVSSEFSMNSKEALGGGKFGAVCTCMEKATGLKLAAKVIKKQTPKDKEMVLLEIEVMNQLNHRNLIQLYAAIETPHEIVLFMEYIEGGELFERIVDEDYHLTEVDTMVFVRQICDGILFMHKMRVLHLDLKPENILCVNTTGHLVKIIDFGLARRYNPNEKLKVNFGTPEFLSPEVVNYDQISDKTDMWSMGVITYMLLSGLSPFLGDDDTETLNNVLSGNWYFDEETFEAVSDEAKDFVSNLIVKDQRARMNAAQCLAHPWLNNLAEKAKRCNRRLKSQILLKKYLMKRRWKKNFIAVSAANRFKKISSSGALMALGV
FGFR4(h), sequence (P22455 whole entry): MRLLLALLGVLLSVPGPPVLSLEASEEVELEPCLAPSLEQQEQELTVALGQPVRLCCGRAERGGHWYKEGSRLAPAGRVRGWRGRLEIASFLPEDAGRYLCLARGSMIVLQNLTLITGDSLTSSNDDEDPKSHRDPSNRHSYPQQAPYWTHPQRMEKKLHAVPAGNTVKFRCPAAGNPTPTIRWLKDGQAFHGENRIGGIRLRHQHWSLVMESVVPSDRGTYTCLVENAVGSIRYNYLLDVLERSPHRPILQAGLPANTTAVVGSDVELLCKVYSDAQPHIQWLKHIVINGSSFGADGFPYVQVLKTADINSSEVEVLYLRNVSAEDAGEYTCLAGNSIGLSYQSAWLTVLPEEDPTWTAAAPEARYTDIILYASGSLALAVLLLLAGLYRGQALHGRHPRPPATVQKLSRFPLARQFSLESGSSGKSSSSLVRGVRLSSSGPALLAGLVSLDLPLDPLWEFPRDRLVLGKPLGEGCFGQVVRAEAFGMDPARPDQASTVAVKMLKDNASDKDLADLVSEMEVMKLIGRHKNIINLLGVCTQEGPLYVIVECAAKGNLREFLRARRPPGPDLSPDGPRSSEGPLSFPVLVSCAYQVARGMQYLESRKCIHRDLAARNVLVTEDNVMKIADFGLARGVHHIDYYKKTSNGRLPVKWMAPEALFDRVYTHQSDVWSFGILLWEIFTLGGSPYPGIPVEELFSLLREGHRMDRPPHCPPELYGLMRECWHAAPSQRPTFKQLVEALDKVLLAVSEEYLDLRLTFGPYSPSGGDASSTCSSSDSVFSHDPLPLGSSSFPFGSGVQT

With `Fc1ccc2ncnc(NCCc3ccc(Cl)cc3)c2c1` [5at, N-[2-(4-Chlorophenyl)Ethyl]-6-Fluoro-4-Quinazolinamine], the remaining activity at 10 µM at MYLK2(h) (setting [1]) worked out at 93%; on MYO3B(h) (setting [1]), 87%; at FGFR4(h) (setting [1]), 96%; on EphB3(h) (setting [1]), 76%.
Consider `COc1ccc2ncnc(Nc3cccc(F)c3)c2c1` [5ay, N-(3-Fluorophenyl)-6-Methoxy-4-Quinazolinamine], for which the remaining activity at 10 µM at MYLK2(h) (setting [2]) is 89%; on MYO3B(h) (setting [2]), 88%; at FGFR4(h) (setting [2]) it was 98%; on EphB3(h) (setting [2]), 84%.
For the compound `Fc1ccc(CCNc2ncnc3ccc(F)cc23)cc1` [5as, 6-Fluoro-N-[2-(4-Fluorophenyl)Ethyl]-4-Quinazolinamine], the remaining activity at 10 µM on MYLK2(h) (setting [3]) was 80%; at MYO3B(h) (setting [3]) it was 84%; at FGFR4(h) (setting [3]) it was 93%; at EphB3(h) (setting [3]), 79%.
Consider `Fc1ccc(CNc2ncnc3ccc(F)cc23)cc1` [5aa, 6-Fluoro-N-(4-fluorobenzyl)-4-Quinazolinamine], for which the remaining activity at 10 µM on MYLK2(h) (setting [4]) worked out at 97%; on MYO3B(h) (setting [4]) it was 89%; at FGFR4(h) (setting [4]), 99%; on EphB3(h) (setting [4]), 93%.
